Data: ChEMBL document CHEMBL4004885, “Synthesis and biological activity of salinomycin-hydroxamic acid conjugates” (Bioorg Med Chem Lett, 2017)
Calls of active or inactive are those of the source. The calls are words filed in the database; no cut-off is given here.

How the values were obtained:
[1] = system: HGC-27; assay: Cytotoxicity against human HGC27 cells assessed as decrease in cell proliferation after 48 hrs by MTT assay; type: functional, cell-based; conditions: HGC-27, 48 h
[2] = system: HT-29; assay: Cytotoxicity against human HT-29 cells assessed as decrease in cell proliferation after 48 hrs by MTT assay; type: functional, cell-based; conditions: HT-29, 48 h
[3] = Chemical stability in RPMI1640 medium at 10 mg after 72 hrs by 1H NMR method; type: physicochemical
[4] = system: MDA-MB-231; assay: Cytotoxicity against human MDA-MB-231 cells assessed as decrease in cell proliferation after 48 hrs by MTT assay; type: functional, cell-based; conditions: MDA-MB-231, 48 h
[5] = system: MDA-MB-231; assay: Cytotoxicity against human MDA-MB-231 cells assessed as decrease in cell proliferation at 10 uM after 48 hrs in presence of salinomycin by MTT assay; type: functional, cell-based
[6] = system: MDA-MB-231; assay: Cytotoxicity against human MDA-MB-231 cells assessed as decrease in cell proliferation after 48 hrs in presence of salinomycin by MTT assay; type: functional, cell-based; conditions: MDA-MB-231, 48 h
[7] = system: HT-29; assay: Potency index, ratio of salinomycin IC50 to test compound IC50 for human HT-29 cells; type: functional
[8] = system: MDA-MB-231; assay: Potency index, ratio of salinomycin IC50 to test compound IC50 for human MDA-MB-231 cells; type: functional
[9] = system: HGC-27; assay: Potency index, ratio of salinomycin IC50 to test compound IC50 for human HGC27 cells; type: functional

**Q.** Which IC50 [1] does the source give for `CC[C@@H](C(=O)[C@@H](C)[C@@H](O)[C@H](C)[C@@H]1O[C@@H]([C@@H](CC)C(=O)ONC(=O)/C=C/c2ccccc2)CC[C@@H]1C)[C@H]1O[C@]2(C=C[C@@H](O)[C@]3(CC[C@@](C)([C@H]4CC[C@](O)(CC)[C@H](C)O4)O3)O2)[C@H](C)C[C@@H]1C` here?
**A.** 7270 nM

**Q.** And the IC50 [2]?
**A.** 7230 nM

**Q.** And the Stability [3]?
**A.** Stable

**Q.** And the IC50 [4]?
**A.** 9640 nM

**Q.** With `O=C(NO)c1ccccc1` [BENZOHYDROXAMATE] as the molecule, how does the Activity [5] read?
**A.** inactive

**Q.** What about the IC50 [6] of the same molecule?
**A.** 9850 nM

**Q.** For `CCCCCCCC(=O)NOC(=O)[C@H](CC)[C@H]1CC[C@H](C)[C@H]([C@@H](C)[C@H](O)[C@H](C)C(=O)[C@H](CC)[C@H]2O[C@]3(C=C[C@@H](O)[C@]4(CC[C@@](C)([C@H]5CC[C@](O)(CC)[C@H](C)O5)O4)O3)[C@H](C)C[C@@H]2C)O1`, which “Ratio IC50” value [7] is on record?
**A.** 1.5 - 2.5

**Q.** And the IC50 [1]?
**A.** 1350 nM

**Q.** And the IC50 [2]?
**A.** 960 nM

**Q.** And the Stability [3]?
**A.** Stable

**Q.** What about the “Ratio IC50” value [8] of the same molecule?
**A.** 1.5 - 2.5

**Q.** And the “Ratio IC50” value [9]?
**A.** 1.5 - 2.5

**Q.** What about the IC50 [4] of the same molecule?
**A.** 2690 nM

**Q.** With `C/C=C/C=C/C(=O)NO` as the molecule, how does the Activity [5] read?
**A.** inactive

**Q.** What about the IC50 [6] of the same molecule?
**A.** 7890 nM

**Q.** Which results are given for `CC[C@@H](C(=O)[C@@H](C)[C@@H](O)[C@H](C)[C@@H]1O[C@@H]([C@@H](CC)C(=O)ONC(=O)CCc2ccccc2)CC[C@@H]1C)[C@H]1O[C@]2(C=C[C@@H](O)[C@]3(CC[C@@](C)([C@H]4CC[C@](O)(CC)[C@H](C)O4)O3)O2)[C@H](C)C[C@@H]1C`?
**A.** Ratio IC50 [7]: 1.5 - 7; IC50 [1]: 1050 nM; IC50 [2]: 800 nM; Stability [3]: Stable; Ratio IC50 [8]: 1.5 - 7; Ratio IC50 [9]: 1.5 - 7; IC50 [4]: 1890 nM

**Q.** Which results are given for `O=C(Cc1ccccc1)NO` [PHENYLACETOHYDROXAMIC ACID]?
**A.** Activity [5]: inactive; IC50 [6]: 9720 nM

**Q.** Which IC50 [4] does the source give for `CC(=O)O[C@H]1C(=O)[C@@]2(C)[C@H]([C@H](OC(=O)c3ccccc3)[C@]3(O)C[C@H](OC(=O)[C@H](O)[C@@H](NC(=O)c4ccccc4)c4ccccc4)C(C)=C1C3(C)C)[C@]1(OC(C)=O)CO[C@@H]1C[C@@H]2O` [PACLITAXEL] here?
**A.** 80 nM

**Q.** Which IC50 [1] does the source give for `CC[C@@H](C(=O)[C@@H](C)[C@@H](O)[C@H](C)[C@@H]1O[C@@H]([C@@H](CC)C(=O)ONC(=O)c2ccc(Br)cc2)CC[C@@H]1C)[C@H]1O[C@]2(C=C[C@@H](O)[C@]3(CC[C@@](C)([C@H]4CC[C@](O)(CC)[C@H](C)O4)O3)O2)[C@H](C)C[C@@H]1C` here?
**A.** 510 nM

**Q.** What about the IC50 [2] of the same molecule?
**A.** 700 nM

**Q.** What about the Stability [3] of the same molecule?
**A.** Stable

**Q.** What about the “Ratio IC50” value [8] of the same molecule?
**A.** 7

**Q.** What about the “Ratio IC50” value [9] of the same molecule?
**A.** 7

**Q.** And the IC50 [4]?
**A.** 940 nM

**Q.** Which “Ratio IC50” value [7] does the source give for `CC[C@@H](C(=O)[C@@H](C)[C@@H](O)[C@H](C)[C@@H]1O[C@@H]([C@@H](CC)C(=O)ONC(=O)c2ccccc2)CC[C@@H]1C)[C@H]1O[C@]2(C=C[C@@H](O)[C@]3(CC[C@@](C)([C@H]4CC[C@](O)(CC)[C@H](C)O4)O3)O2)[C@H](C)C[C@@H]1C` here?
**A.** 1.5 - 7

**Q.** What about the IC50 [1] of the same molecule?
**A.** 920 nM

**Q.** And the IC50 [2]?
**A.** 850 nM

**Q.** What about the Stability [3] of the same molecule?
**A.** Stable

**Q.** What about the “Ratio IC50” value [8] of the same molecule?
**A.** 1.5 - 7

**Q.** And the “Ratio IC50” value [9]?
**A.** 1.5 - 7

**Q.** And the IC50 [4]?
**A.** 2260 nM

**Q.** Which IC50 [1] does the source give for `C/C=C/C=C/C(=O)NOC(=O)[C@H](CC)[C@H]1CC[C@H](C)[C@H]([C@@H](C)[C@H](O)[C@H](C)C(=O)[C@H](CC)[C@H]2O[C@]3(C=C[C@@H](O)[C@]4(CC[C@@](C)([C@H]5CC[C@](O)(CC)[C@H](C)O5)O4)O3)[C@H](C)C[C@@H]2C)O1` here?
**A.** 2630 nM

**Q.** What about the IC50 [2] of the same molecule?
**A.** 2310 nM

**Q.** And the Stability [3]?
**A.** Stable

**Q.** What about the IC50 [4] of the same molecule?
**A.** 3820 nM

**Q.** What does the source list for `O=C(NO)c1ccc(Br)cc1`?
**A.** Activity [5]: inactive; IC50 [6]: > 10000 nM

**Q.** Which “Ratio IC50” value [7] does the source give for `CC[C@@H](C(=O)[C@@H](C)[C@@H](O)[C@H](C)[C@@H]1O[C@@H]([C@@H](CC)C(=O)ONC(=O)Cc2ccccc2)CC[C@@H]1C)[C@H]1O[C@]2(C=C[C@@H](O)[C@]3(CC[C@@](C)([C@H]4CC[C@](O)(CC)[C@H](C)O4)O3)O2)[C@H](C)C[C@@H]1C` here?
**A.** 1.5 - 7

**Q.** And the IC50 [1]?
**A.** 1290 nM

**Q.** And the IC50 [2]?
**A.** 900 nM

**Q.** What about the Stability [3] of the same molecule?
**A.** Stable

**Q.** What about the “Ratio IC50” value [8] of the same molecule?
**A.** 1.5 - 7

**Q.** What about the “Ratio IC50” value [9] of the same molecule?
**A.** 1.5 - 7

**Q.** What about the IC50 [4] of the same molecule?
**A.** 1010 nM

**Q.** Which IC50 [1] does the source give for `CC[C@@H](C(=O)[C@@H](C)[C@@H](O)[C@H](C)[C@@H]1O[C@@H]([C@@H](CC)C(=O)ONC(=O)c2ccccc2O)CC[C@@H]1C)[C@H]1O[C@]2(C=C[C@@H](O)[C@]3(CC[C@@](C)([C@H]4CC[C@](O)(CC)[C@H](C)O4)O3)O2)[C@H](C)C[C@@H]1C` here?
**A.** 920 nM

**Q.** And the IC50 [2]?
**A.** 880 nM

**Q.** And the Stability [3]?
**A.** Stable

**Q.** And the IC50 [4]?
**A.** 2780 nM

**Q.** For `CC[C@@H](C(=O)[C@@H](C)[C@@H](O)[C@H](C)[C@@H]1O[C@@H]([C@@H](CC)C(=O)ONC(C)=O)CC[C@@H]1C)[C@H]1O[C@]2(C=C[C@@H](O)[C@]3(CC[C@@](C)([C@H]4CC[C@](O)(CC)[C@H](C)O4)O3)O2)[C@H](C)C[C@@H]1C`, which IC50 [1] is on record?
**A.** 2250 nM

**Q.** What about the IC50 [2] of the same molecule?
**A.** 2320 nM

**Q.** And the Stability [3]?
**A.** Stable

**Q.** And the IC50 [4]?
**A.** 3790 nM

**Q.** Which results are given for `CC[C@@H](C(=O)[C@@H](C)[C@@H](O)[C@H](C)[C@@H]1O[C@@H]([C@@H](CC)C(=O)ONC(=O)Cc2ccccc2Br)CC[C@@H]1C)[C@H]1O[C@]2(C=C[C@@H](O)[C@]3(CC[C@@](C)([C@H]4CC[C@](O)(CC)[C@H](C)O4)O3)O2)[C@H](C)C[C@@H]1C`?
**A.** IC50 [1]: 760 nM; IC50 [2]: 800 nM; Stability [3]: Stable; IC50 [4]: 930 nM

**Q.** With `O=C(Cc1ccccc1Br)NO` as the molecule, how does the Activity [5] read?
**A.** inactive

**Q.** And the IC50 [6]?
**A.** > 10000 nM

**Q.** Which IC50 [1] does the source give for `CC[C@@H](C(=O)[C@@H](C)[C@@H](O)[C@H](C)[C@@H]1O[C@@H]([C@@H](CC)C(=O)O)CC[C@@H]1C)[C@H]1O[C@]2(C=C[C@@H](O)[C@]3(CC[C@@](C)([C@H]4CC[C@](O)(CC)[C@H](C)O4)O3)O2)[C@H](C)C[C@@H]1C` [SALINOMYCIN] here?
**A.** 2570 nM

**Q.** And the IC50 [2]?
**A.** 1430 nM

**Q.** What about the Stability [3] of the same molecule?
**A.** Stable

**Q.** And the IC50 [4]?
**A.** 6530 to 6910 nM

**Q.** For `O=C(/C=C/c1ccccc1)NO`, which Activity [5] is on record?
**A.** inactive

**Q.** And the IC50 [6]?
**A.** 8980 nM
